What was measured:
[1] = molecular target: Serine/threonine-protein kinase MARK1 (Homo sapiens) (UniProt Q9P0L2); test: Inhibition of human full length MARK1 expressed in baculovirus assessed as substrate phosphorylation using fluorescence-labelled peptides as substrate at 0.06 uM after 90 mins by microfluidic peptide phosphorylation assay
[2] = molecular target: T1, Serine/threonine-protein kinase D1 (Homo sapiens) (UniProt Q15139); test: Inhibition of human full length PKD1 expressed in baculovirus assessed as substrate phosphorylation using fluorescence-labelled peptides as substrate at 420 uM after 90 mins by microfluidic peptide phosphorylation assay
T1 sequence (whole entry): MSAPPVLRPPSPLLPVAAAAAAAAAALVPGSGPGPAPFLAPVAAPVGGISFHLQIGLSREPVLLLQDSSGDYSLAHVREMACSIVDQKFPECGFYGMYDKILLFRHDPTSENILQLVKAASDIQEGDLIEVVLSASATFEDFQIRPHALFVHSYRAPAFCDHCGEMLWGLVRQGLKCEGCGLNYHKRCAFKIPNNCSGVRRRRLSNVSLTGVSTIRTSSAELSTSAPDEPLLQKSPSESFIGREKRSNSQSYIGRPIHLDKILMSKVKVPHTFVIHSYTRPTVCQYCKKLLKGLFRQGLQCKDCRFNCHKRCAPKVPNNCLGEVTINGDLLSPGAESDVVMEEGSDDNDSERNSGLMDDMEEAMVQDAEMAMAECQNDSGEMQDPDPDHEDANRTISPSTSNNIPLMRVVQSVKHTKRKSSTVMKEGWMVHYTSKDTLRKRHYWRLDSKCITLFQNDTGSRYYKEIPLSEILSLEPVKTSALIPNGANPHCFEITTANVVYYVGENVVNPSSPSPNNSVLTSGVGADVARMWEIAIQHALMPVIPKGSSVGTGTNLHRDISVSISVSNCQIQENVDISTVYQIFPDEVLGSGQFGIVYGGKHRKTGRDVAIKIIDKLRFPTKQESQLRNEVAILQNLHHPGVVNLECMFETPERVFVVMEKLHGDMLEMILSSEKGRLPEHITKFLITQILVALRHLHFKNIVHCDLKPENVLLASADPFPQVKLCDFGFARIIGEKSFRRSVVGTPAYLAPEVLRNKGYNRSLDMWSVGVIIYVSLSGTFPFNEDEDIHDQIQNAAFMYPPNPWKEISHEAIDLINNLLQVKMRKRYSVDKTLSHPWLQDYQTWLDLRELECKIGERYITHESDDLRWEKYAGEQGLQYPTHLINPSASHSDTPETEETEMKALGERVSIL

[3] = molecular target: T2, Mitogen-activated protein kinase 13 (Homo sapiens) (UniProt O15264); test: Inhibition of human full length p38 delta expressed in Escherichia coli cell assessed as substrate phosphorylation using fluorescence-labelled peptides as substrate at 9 uM after 90 mins by microfluidic peptide phosphorylation assay
T2 sequence (whole entry): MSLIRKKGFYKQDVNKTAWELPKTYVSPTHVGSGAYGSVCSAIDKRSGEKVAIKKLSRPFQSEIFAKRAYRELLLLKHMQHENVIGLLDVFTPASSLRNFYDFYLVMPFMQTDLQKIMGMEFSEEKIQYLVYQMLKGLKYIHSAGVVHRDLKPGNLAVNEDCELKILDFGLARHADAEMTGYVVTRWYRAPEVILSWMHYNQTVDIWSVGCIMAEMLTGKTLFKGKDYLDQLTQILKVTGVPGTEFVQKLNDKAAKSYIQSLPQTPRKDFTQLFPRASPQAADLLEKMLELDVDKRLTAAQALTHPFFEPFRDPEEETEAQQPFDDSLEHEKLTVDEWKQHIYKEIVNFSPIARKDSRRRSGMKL

[4] = molecular target: T3, Serine/threonine-protein kinase BRSK2 (Homo sapiens) (UniProt Q8IWQ3); test: Inhibition of human truncated BRSK2 expressed in baculovirus assessed as substrate phosphorylation using fluorescence-labelled peptides as substrate at 70 uM after 90 mins by microfluidic peptide phosphorylation assay
T3 sequence (whole entry): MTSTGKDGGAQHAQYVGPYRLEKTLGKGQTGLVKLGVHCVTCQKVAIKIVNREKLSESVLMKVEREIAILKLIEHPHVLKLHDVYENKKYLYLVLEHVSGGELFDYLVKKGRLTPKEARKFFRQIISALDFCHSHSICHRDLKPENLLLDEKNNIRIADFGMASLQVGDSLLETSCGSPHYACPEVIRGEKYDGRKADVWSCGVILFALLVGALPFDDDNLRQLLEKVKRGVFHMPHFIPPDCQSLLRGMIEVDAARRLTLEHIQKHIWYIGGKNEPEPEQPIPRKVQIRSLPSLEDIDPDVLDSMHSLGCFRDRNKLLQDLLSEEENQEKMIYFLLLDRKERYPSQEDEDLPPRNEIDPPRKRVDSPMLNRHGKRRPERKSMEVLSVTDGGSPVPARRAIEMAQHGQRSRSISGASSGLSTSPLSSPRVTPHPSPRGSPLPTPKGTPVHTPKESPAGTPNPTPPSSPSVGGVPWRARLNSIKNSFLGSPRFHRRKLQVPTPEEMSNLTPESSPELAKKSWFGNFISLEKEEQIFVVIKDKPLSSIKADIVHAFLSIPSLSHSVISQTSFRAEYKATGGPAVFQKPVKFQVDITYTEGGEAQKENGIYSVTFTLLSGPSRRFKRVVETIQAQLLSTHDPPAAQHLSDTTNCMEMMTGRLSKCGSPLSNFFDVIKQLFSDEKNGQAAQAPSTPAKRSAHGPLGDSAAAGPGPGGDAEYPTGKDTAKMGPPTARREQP

[5] = molecular target: Glycogen synthase kinase-3 beta (Homo sapiens) (UniProt P49841); test: Inhibition of human full length GSK-3 beta expressed in baculovirus assessed as substrate phosphorylation using fluorescence-labelled peptides as substrate at 70 uM after 90 mins by microfluidic peptide phosphorylation assay
Homo sapiens = species: Homo sapiens; test: Inhibition of human P70S6K catalytic domain expressed in baculovirus assessed as substrate phosphorylation using fluorescence-labelled peptides as substrate at 95 uM after 90 mins by microfluidic peptide phosphorylation assay
[6] = molecular target: Mitogen-activated protein kinase kinase kinase kinase 4 (Homo sapiens) (UniProt O95819); test: Inhibition of human HGK catalytic domain expressed in baculovirus assessed as substrate phosphorylation using fluorescence-labelled peptides as substrate at 8 uM after 90 mins by microfluidic peptide phosphorylation assay
[7] = molecular target: Protein kinase C delta type (Homo sapiens) (UniProt Q05655); test: Inhibition of human truncated PKC delta expressed in baculovirus assessed as substrate phosphorylation using fluorescence-labelled peptides as substrate at 8 uM after 90 mins by microfluidic peptide phosphorylation assay
[8] = molecular target: Proto-oncogene tyrosine-protein kinase Src (Homo sapiens) (UniProt P12931); test: Inhibition of human full length SRC expressed in baculovirus assessed as substrate phosphorylation using fluorescence-labelled peptides as substrate at 8 uM after 90 mins by microfluidic peptide phosphorylation assay
Chain of Proto-oncogene tyrosine-protein kinase Src (Homo sapiens) (P12931 2-536 limits assumed): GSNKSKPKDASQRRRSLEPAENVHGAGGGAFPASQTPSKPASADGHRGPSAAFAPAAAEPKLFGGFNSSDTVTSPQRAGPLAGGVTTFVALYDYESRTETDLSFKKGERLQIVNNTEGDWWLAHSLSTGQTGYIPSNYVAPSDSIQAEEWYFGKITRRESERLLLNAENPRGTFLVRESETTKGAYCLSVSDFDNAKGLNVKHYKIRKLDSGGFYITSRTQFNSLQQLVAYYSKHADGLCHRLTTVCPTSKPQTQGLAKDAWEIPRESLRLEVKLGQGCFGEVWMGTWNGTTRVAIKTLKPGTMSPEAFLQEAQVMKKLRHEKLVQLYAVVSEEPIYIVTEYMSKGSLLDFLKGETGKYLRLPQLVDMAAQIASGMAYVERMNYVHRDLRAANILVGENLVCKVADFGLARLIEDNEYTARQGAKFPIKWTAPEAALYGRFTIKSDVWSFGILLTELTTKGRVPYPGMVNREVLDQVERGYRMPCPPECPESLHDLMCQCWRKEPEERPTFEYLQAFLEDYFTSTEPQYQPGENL

Chain of Glycogen synthase kinase-3 beta (Homo sapiens) (P49841 whole entry, looked up, the tested form may be a part): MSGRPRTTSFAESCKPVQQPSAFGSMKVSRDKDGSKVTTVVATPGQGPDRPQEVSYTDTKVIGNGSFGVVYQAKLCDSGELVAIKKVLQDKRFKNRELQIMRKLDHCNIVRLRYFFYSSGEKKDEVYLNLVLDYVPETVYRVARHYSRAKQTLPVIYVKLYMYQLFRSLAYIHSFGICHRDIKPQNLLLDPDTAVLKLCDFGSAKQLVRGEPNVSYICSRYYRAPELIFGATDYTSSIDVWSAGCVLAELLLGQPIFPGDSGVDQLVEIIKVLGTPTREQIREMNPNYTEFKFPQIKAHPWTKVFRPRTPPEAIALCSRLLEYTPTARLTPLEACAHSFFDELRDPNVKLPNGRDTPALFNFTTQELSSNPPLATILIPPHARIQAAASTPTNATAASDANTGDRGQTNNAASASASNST
Chain of Serine/threonine-protein kinase MARK1 (Homo sapiens) (Q9P0L2 whole entry, looked up): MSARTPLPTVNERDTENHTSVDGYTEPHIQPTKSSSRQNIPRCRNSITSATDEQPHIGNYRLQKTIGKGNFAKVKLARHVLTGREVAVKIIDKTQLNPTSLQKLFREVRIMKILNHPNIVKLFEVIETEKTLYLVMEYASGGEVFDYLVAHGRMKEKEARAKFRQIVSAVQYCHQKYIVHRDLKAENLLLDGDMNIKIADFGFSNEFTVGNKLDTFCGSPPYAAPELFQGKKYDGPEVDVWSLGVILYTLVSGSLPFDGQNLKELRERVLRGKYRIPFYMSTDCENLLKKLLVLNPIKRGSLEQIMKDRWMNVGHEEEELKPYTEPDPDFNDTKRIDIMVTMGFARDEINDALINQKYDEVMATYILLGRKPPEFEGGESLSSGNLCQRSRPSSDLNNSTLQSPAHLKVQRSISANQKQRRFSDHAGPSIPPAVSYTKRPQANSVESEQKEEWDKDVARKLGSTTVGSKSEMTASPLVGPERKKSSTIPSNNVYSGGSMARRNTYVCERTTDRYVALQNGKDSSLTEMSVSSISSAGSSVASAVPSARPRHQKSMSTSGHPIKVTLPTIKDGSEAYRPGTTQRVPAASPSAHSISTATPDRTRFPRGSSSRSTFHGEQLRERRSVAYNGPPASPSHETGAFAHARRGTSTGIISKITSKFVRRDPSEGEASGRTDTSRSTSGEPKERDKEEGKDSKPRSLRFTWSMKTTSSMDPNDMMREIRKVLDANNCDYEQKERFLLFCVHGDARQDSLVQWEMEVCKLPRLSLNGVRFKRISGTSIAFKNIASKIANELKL
Chain of Protein kinase C delta type (Homo sapiens) (Q05655 whole entry, looked up, the tested form may be a part): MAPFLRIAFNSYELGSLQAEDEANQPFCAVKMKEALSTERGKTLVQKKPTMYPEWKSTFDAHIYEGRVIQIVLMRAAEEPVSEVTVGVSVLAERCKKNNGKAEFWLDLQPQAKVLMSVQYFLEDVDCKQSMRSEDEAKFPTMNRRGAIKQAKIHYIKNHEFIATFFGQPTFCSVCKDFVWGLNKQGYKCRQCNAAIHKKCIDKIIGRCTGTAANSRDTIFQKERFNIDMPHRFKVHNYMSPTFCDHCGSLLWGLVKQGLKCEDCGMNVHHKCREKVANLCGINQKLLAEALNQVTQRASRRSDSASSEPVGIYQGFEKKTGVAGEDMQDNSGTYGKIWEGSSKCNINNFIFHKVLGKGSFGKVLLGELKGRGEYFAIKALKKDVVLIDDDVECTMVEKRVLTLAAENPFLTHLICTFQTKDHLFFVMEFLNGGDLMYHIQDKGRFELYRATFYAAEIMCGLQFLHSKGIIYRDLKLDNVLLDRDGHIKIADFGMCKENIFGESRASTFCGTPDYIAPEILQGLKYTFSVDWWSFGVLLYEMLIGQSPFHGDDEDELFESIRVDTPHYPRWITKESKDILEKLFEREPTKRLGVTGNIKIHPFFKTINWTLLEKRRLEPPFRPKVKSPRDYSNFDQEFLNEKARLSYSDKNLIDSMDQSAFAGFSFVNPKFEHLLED
Chain of Mitogen-activated protein kinase kinase kinase kinase 4 (Homo sapiens) (O95819 2-1239 limits assumed): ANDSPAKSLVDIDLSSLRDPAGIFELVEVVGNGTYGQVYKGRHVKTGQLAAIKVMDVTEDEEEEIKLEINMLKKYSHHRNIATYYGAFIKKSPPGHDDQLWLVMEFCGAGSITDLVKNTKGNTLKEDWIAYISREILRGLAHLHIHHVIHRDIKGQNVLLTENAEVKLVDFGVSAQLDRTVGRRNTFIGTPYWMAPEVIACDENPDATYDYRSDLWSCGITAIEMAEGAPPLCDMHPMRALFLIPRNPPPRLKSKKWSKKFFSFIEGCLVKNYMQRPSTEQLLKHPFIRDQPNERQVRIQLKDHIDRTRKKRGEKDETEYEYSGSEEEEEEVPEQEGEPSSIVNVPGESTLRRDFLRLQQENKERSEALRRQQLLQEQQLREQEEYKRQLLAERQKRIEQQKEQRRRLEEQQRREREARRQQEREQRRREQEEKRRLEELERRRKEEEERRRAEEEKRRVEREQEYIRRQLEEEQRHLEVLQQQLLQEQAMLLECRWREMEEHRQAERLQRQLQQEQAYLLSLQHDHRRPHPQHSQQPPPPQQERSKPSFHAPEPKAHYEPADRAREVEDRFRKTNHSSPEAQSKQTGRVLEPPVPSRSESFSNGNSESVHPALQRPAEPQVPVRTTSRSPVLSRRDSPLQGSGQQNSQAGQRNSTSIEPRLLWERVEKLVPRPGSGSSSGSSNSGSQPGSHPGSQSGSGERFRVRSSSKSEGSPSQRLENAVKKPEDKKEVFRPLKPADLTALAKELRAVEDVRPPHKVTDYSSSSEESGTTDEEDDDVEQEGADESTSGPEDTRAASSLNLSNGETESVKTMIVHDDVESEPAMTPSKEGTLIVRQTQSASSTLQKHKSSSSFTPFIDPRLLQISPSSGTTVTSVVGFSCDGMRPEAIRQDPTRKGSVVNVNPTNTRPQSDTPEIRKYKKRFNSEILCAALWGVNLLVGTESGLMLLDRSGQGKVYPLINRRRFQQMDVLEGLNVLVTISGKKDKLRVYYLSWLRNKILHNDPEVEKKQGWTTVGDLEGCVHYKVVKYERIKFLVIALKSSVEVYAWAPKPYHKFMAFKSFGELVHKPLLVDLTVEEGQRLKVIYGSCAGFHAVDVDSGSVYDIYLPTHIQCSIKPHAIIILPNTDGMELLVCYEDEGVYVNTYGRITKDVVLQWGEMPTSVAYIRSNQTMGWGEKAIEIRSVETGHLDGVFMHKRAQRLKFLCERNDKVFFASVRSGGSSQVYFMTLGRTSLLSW

NC1(Cc2ccc(Cl)cc2)CCN(c2ncnc3[nH]ccc23)CC1
inhibition [1]: 4.5%

c1nc(N2CCOCC2)c2nc[nH]c2n1
inhibition [2]: 70%

NCC1CN(c2ncnc3[nH]c4cnccc4c23)CCO1 (centres undefined)
inhibition [3]: 2%

CNCc1ccc(-c2ncnc3[nH]cnc23)cc1
inhibition [4]: 43%
inhibition [5]: 37.5%

NCCc1ccc(-c2ncnc3[nH]cnc23)cc1
inhibition (Homo sapiens): 49%

NCC1CCN(c2ncnc3[nH]ccc23)CC1
inhibition [6]: 11.5%
inhibition [7]: 67%
inhibition [8]: 1.5%
